Data as given in BindingDB's records for doi:10.1021/jm061344o (Incyte, 2007).

experiment: Inhibition of Her2 sheddase activity in BT474 cell line

Row | IC50 [nM] | SMILES
1 | 560 | O=C(NO)[C@H]1CCCN[C@@H]1C(=O)N1CC[C@H](c2ccccc2)C1 [(2S,3S)-N-hydroxy-2-((R)-3-phenylpyrrolidine-1-carbonyl)piperidine-3-carboxamide]
2 | 280 | O=C(NO)[C@H]1CC2(CC2)CN[C@@H]1C(=O)N1CCN2c3ccccc3CC2C1 (stereo partly drawn) [(6S,7S)-N-hydroxy-6-(3,4,10,10a-tetrahydropyrazino[1,2-a]indol-2(1H)-ylcarbonyl)-5-azaspiro[2.5]octane-7-carboxamide]
3 | 140 | O=C(NO)[C@H]1CC2(CC2)CN[C@@H]1C(=O)N1CCC(c2ccccc2)CC1 [(6S,7S)-N-hydroxy-6-[(4-phenylpiperidin-1-yl)carbonyl]-5-azaspiro[2.5]octane-7-carboxamide]
